Reference: the supplement of paper PMC4977894
± gives the standard deviation of the averaged measurements.

Columns and labels:
[1] = tested on: Homo sapiens (human subject panel, olfactory perception); assay: perceived odor pleasantness rating (rating 0-100); higher = more pleasant
Method in brief: (§1)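 Values for familiarity, intensity and pleasantness are averaged over subjects. The panel of 55 healthy people aged 18–50 excluded the six lowest performers and rated each paraffin-oil dilution of a molecule at high and low concentrations. Ratings were made only for stimuli the subject reported smelling, on a slider converted to a 0–100 scale.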

[2] = tested on: Homo sapiens (human subject panel, olfactory perception); assay: perceived odor familiarity rating (rating 0-100); higher = more familiar
Method in brief: as §1

[3] = tested on: Homo sapiens (human subject panel, olfactory perception); assay: perceived odor intensity rating (rating 0-100); higher = stronger perceived smell
Method in brief: as §1

[4] = odor dilution in paraffin oil: 1/10
[5] = odor dilution in paraffin oil: 1/1,000
[6] = odor dilution in paraffin oil: 1/100,000
[7] = odor dilution in paraffin oil: 1/10,000,000

Structure (SMILES) | perceived odor pleasantness rating [1, 4] | perceived odor pleasantness rating [1, 5] | perceived odor familiarity rating [2, 4] | perceived odor familiarity rating [2, 5] | perceived odor intensity rating [3, 4] | perceived odor intensity rating [3, 5] | perceived odor pleasantness rating [1, 6] | perceived odor familiarity rating [2, 6] | perceived odor intensity rating [3, 6] | perceived odor pleasantness rating [1, 7] | perceived odor familiarity rating [2, 7] | perceived odor intensity rating [3, 7]
Cc1cc(C(C)(C)C)c(O)c(C(C)(C)C)c1 [Butylated hydroxytoluene] | 51.9 ± 24 | 51.4 ± 22 | 43.4 ± 29 | 27.7 ± 29 | 40.3 ± 31 | 16.9 ± 24 | – | – | – | – | – | –
CC12CCC(CC1=O)C2(C)C (stereo not drawn) [Camphor] | – | 49.5 ± 25 | – | 54.4 ± 30 | – | 57.4 ± 30 | 53.1 ± 22 | 31.3 ± 29 | 17.3 ± 20 | – | – | –
Cc1ccc(C(C)C)cc1O [Carvacrol] | – | 48 ± 28 | – | 62.7 ± 31 | – | 74.1 ± 20 | 53.2 ± 24 | 58.8 ± 32 | 50.4 ± 26 | – | – | –
OC/C=C/c1ccccc1 [Cinnamyl alcohol] | – | – | – | – | – | – | 32 | 52 | 6 | – | – | –
O=C(O)CC(O)(CC(=O)O)C(=O)O [Citric acid] | 51.7 ± 26 | 46.7 ± 28 | 33.9 ± 30 | 28.5 ± 31 | 27.4 ± 28 | 14.7 ± 22 | – | – | – | – | – | –
O=C1CCCCCC1 [Cycloheptanone] | – | 40.8 ± 28 | – | 52.7 ± 30 | – | 69 ± 28 | 55 ± 19 | 35.8 ± 30 | 26.4 ± 28 | – | – | –
C1CCCCC1 [Cyclohexane] | 48.2 ± 27 | 40.5 ± 24 | 55.1 ± 29 | 51.6 ± 32 | 57.4 ± 34 | 49 ± 34 | – | – | – | – | – | –
O=C(O)CC1CCCCC1 [Cyclohexaneacetic acid] | – | 28.8 ± 22 | – | 46.9 ± 28 | – | 69.9 ± 22 | 37.6 ± 23 | 32.8 ± 25 | 29.4 ± 30 | – | – | –
O=C1CCCCC1 [Cyclohexanone (replicate)] | – | 46 ± 27 | – | 51.6 ± 30 | – | 66.5 ± 26 | 55.4 ± 24 | 28.4 ± 28 | 20.8 ± 29 | – | – | –
O=C1CCCCC1 [Cyclohexanone] | – | 38 ± 27 | – | 52.5 ± 28 | – | 69.9 ± 22 | 47.9 ± 23 | 26.7 ± 25 | 19.6 ± 27 | – | – | –
SC1CCCC1 [Cyclopentanethiol] | – | – | – | – | – | – | 16.5 ± 22 | 55.4 ± 34 | 92.4 ± 10 | 24 ± 23 | 57.8 ± 33 | 78.1 ± 21
O=C1CCCC1 [Cyclopentanone] | 29.6 ± 25 | 36 ± 25 | 48.9 ± 34 | 33.1 ± 30 | 81.4 ± 23 | 52.3 ± 33 | – | – | – | – | – | –
CC12CCC(CC1=O)C2(C)C [D-Camphor] | 52.1 ± 30 | 52.3 ± 28 | 81 ± 26 | 68.5 ± 25 | 89.8 ± 17 | 63.8 ± 31 | – | – | – | – | – | –
C=C(C)[C@@H]1CC[C@@H](C)C(=O)C1 [D-Dihydrocarvone] | 39.5 ± 26 | 50.2 ± 23 | 52.5 ± 34 | 47.2 ± 28 | 81.9 ± 16 | 45.9 ± 29 | – | – | – | – | – | –
OC[C@@H](O)[C@@H](O)[C@H](O)[C@@H](O)CO [D-Sorbitol] | 29.8 ± 27 | 45 ± 28 | 55.1 ± 31 | 44.6 ± 31 | 73.4 ± 22 | 39 ± 33 | – | – | – | – | – | –
OC1CCC2CCCCC2C1 (stereo not drawn) [Decahydro-2-naphthol] | – | 49.9 ± 26 | – | 48.7 ± 29 | – | 54.8 ± 29 | 50.6 ± 24 | 36.3 ± 32 | 23.1 ± 27 | – | – | –
CCCCCCCCCC(OC)OC [Decanal dimethyl acetal] | 50.2 ± 29 | 53.6 ± 22 | 47.6 ± 34 | 41.2 ± 34 | 70.7 ± 25 | 29.7 ± 30 | – | – | – | – | – | –
CCSSCC [Diethyl disulfide] | – | 21.3 ± 27 | – | 52.5 ± 35 | – | 85.9 ± 16 | 28.4 ± 24 | 51.2 ± 32 | 60.6 ± 34 | – | – | –

Structure (SMILES) | perceived odor pleasantness rating [1, 4] | perceived odor pleasantness rating [1, 5] | perceived odor familiarity rating [2, 4] | perceived odor familiarity rating [2, 5] | perceived odor intensity rating [3, 4] | perceived odor intensity rating [3, 5] | perceived odor pleasantness rating [1, 6] | perceived odor familiarity rating [2, 6] | perceived odor intensity rating [3, 6] | perceived odor pleasantness rating [1, 7] | perceived odor familiarity rating [2, 7] | perceived odor intensity rating [3, 7]
CCOC(=O)CC(O)C(=O)OCC (stereo not drawn) [Diethyl malate] | – | 41.4 ± 24 | – | 35.8 ± 28 | – | 24.6 ± 25 | 55.2 ± 19 | 22.1 ± 26 | 12.6 ± 17 | – | – | –
CCOC(=O)CC(=O)OCC [Diethyl malonate] | – | 71.7 ± 17 | – | 64.3 ± 24 | – | 57.1 ± 27 | 61 ± 23 | 42.8 ± 28 | 27.4 ± 26 | – | – | –
CCOC(=O)CCCCCCCCC(=O)OCC [Diethyl sebacate] | 71.3 ± 21 | 55.5 ± 26 | 64.7 ± 28 | 31.3 ± 31 | 54.7 ± 27 | 21.4 ± 25 | – | – | – | – | – | –
CCSCC [Diethyl sulfide] | – | – | – | – | – | – | 24.2 ± 22 | 37.5 ± 27 | 62.5 ± 32 | 43.8 ± 23 | 42 ± 27 | 19.7 ± 27
O=C1CCc2ccccc2O1 [Dihydrocoumarin] | – | 64.8 ± 23 | – | 59.7 ± 29 | – | 70.9 ± 19 | 64.6 ± 22 | 42.2 ± 30 | 35.5 ± 30 | – | – | –
CCCCCC1=C(C)CCC1=O [Dihydrojasmone] | – | 44.5 ± 26 | – | 48.1 ± 28 | – | 62.7 ± 28 | 48.5 ± 24 | 42.9 ± 29 | 44.3 ± 28 | – | – | –
CNc1ccccc1C(=O)OC [Dimethyl anthranilate] | – | 63.1 ± 23 | – | 53 ± 28 | – | 44.2 ± 31 | 53.3 ± 26 | 31.2 ± 29 | 17.1 ± 21 | – | – | –
CSSSC [Dimethyl trisulfide (replicate)] | – | – | – | – | – | – | 18.4 ± 22 | 59.2 ± 32 | 80.1 ± 22 | 26.5 ± 23 | 50.5 ± 33 | 62.9 ± 29
CSSSC [Dimethyl trisulfide] | – | – | – | – | – | – | 22.3 ± 24 | 52.5 ± 34 | 77.6 ± 23 | 28.1 ± 25 | 49.1 ± 34 | 63 ± 28
c1ccc(Oc2ccccc2)cc1 [Diphenyl ether] | – | 49.9 ± 26 | – | 40.4 ± 28 | – | 55.1 ± 29 | 46.5 ± 22 | 42.4 ± 29 | 27 ± 28 | – | – | –
CCOC(=O)c1ccco1 [Ethyl 2-furoate] | 32 ± 28 | 42.8 ± 24 | 47.9 ± 33 | 36.6 ± 29 | 87.4 ± 14 | 40.3 ± 34 | – | – | – | – | – | –
CCOC(=O)C(C)CC (stereo not drawn) [Ethyl 2-methylbutyrate] | – | 75.1 ± 24 | – | 69.6 ± 30 | – | 76.5 ± 18 | 77.9 ± 20 | 67.3 ± 25 | 55.4 ± 28 | – | – | –
CCCC(C)C(=O)OCC (stereo not drawn) [Ethyl 2-methylpentanoate (replicate)] | – | 72.2 ± 18 | – | 59.6 ± 31 | – | 52.1 ± 29 | 64.9 ± 20 | 52 ± 27 | 50.5 ± 29 | – | – | –
CCCC(C)C(=O)OCC (stereo not drawn) [Ethyl 2-methylpentanoate] | – | 76.8 ± 20 | – | 67.2 ± 24 | – | 67.9 ± 22 | 64.9 ± 21 | 50.8 ± 28 | 49.4 ± 24 | – | – | –
CCOC(=O)CCSCc1ccco1 [Ethyl 3-(furfurylthio)propionate] | – | – | – | – | – | – | 19.6 ± 22 | 50.2 ± 32 | 77.8 ± 18 | 32.3 ± 24 | 41.6 ± 32 | 58.7 ± 28
CCOC(=O)C1OC1(C)c1ccccc1 (stereo not drawn) [Ethyl 3-methyl-3-phenylglycidate] | – | – | – | – | – | – | 59.9 ± 25 | 48 ± 30 | 48.2 ± 32 | 53.4 ± 23 | 28.4 ± 28 | 13.3 ± 28
CCCCC(=O)OCC [Ethyl Valerate] | – | 71.4 ± 26 | – | 67.1 ± 33 | – | 75.2 ± 22 | 73.6 ± 20 | 58.9 ± 30 | 50.6 ± 28 | – | – | –
CCOc1cc(C=O)ccc1O [Ethyl Vanillin] | 84.3 ± 20 | 83.9 ± 17 | 79.8 ± 22 | 77.3 ± 26 | 75.3 ± 20 | 71 ± 26 | – | – | – | – | – | –
